Source: patent US4322426A, “17-Substituted-6-desoxy-7,8-dihydro-6α-methylnoroxymorphone narcotic antagonists” (priority 1980, dated 1982)

Experiments:
[1] = tested on: Straub tail induced by morphine; conditions: literature, Blumberg et al. 1968; cited from earlier work
[2] = tested on: pain induced by phenylquinone; experiment: Phenylquinone writhing test (PQW), analgesic activity; format: in vivo, female white mice; conditions: oral
Protocol: A standard procedure for detecting and comparing the analgesic activity of a series of compounds for which there is good correlation with human efficacy is the standard phenylquinone writhing test (PQW) modified from Siegmund, et al., Proc. Soc. Exp. Biol. Med., 95, 729 (1957). A test compound suspended in 1% methocellulose was given orally to fasted (17-21 hours) female white mice, 5-20 animals per double blind test. Aqueous (0.1% phenyl-p-benzoquinone) phenylquinone was injected intraperitoneally at 24 minutes later using 0.20 ml per mouse. […] The effective analgesic dose for 50% of the mice (ED50) was calculated by the moving average method of Thompson, W. R., Bact. Rev., 11, 115-145 (1947).

[3] = tested on: Straub tail induced by morphine; experiment: Anti-Straub Tail test, antagonism of morphine-induced Straub tail; format: in vivo, Female CF1 S mice; conditions: relative to naloxone
Protocol: Narcotic analgesics produce in mice an erection and arching of the tail (90° or more) which is referable to spinal cord stimulation. This Straub tail reaction is not produced by other analgesics, including the narcotic antagonists.
H. B. Dayton and P. S. Wolf, The Pharmacologist, 10, 189 (1968)]. This property is the basis of a mouse test for narcotic antagonists.
Female CF1 S mice (fasted 17-21 hrs.), 5 per dose, were injected orally or subcutaneously (loose skin inside hind limb) with test drug at 0.67, 2, 6, 18, 54 and 162 mg/kg or other appropriate doses in 0.20 ml 1% Methocel® per mouse. Ten minutes later, 40 mg/kg (base weight) of morphine sulfate in 0.20 ml 1% Methocel® per mouse was given subcutaneously (nape of neck). The mice were observed continuously for the next 20 minutes after the first mouse of a group of 30 had received morphine. Prevention of a 90° Straub tail during this observation period was taken as indication of narcotic antagonist ability.

Structure (SMILES)	prevention of morphine-induced Straub tail (in words) [1]	analgesic activity (in words) [2]	other results
C=CCN1CC[C@]23c4c5ccc(O)c4O[C@H]2C(=O)CC[C@@]3(O)[C@H]1C5 [Naloxone]	prevent the induction of Straub tail in mice	–	–
COc1ccc2c3c1O[C@H]1[C@@H](C)CC[C@@]4(O)[C@@H](C2)N(CC2CCCO2)CC[C@]314 (some centres unmarked) [Compound 6]	–	weakly analgetic	–
C[C@H]1CC[C@@]2(O)[C@H]3Cc4ccc(O)c5c4[C@@]2(CCN3CC2CC2)[C@H]1O5 [Compound 1]	–	–	narcotic antagonism (in words) [3]: almost the antagonistic activity of naloxone
C[C@H]1CC[C@@]2(O)[C@H]3Cc4ccc(O)c5c4[C@@]2(CCN3CC2CCCO2)[C@H]1O5 (some centres unmarked) [Compound 7]	–	weakly analgetic	–
C=CCN1CC[C@]23c4c5ccc(O)c4O[C@H]2[C@@H](O)C=C[C@H]3[C@H]1C5 [nalorphine]	prevent the induction of Straub tail in mice	–	–
